Assay results taken from patent US7202274B2, “Cyclic hemiacetal derivative and use thereof” (Senju Pharmaceutical Co., Ltd., priority 2002, dated 2007).
Where two headings read alike, the source gives them in different places.

What was measured:
[1] = Aqueous humor penetration test; assay type: in vivo, Japanese white rabbits; details: rabbit
Procedure: The suspension of Formulation Example 4 to be mentioned later was instilled by 50 μL into the both eyes of Japanese white rabbits (body weight about 2 kg, purchased from Fukusaki Rabbit Union). At 0.25, 0.5, 1 and 3 hr after the instillation, the rabbits were sacrificed with pentobarbital and aqueous humor was recovered. Using a column switching system HPLC, the concentration of Compound 1 in the aqueous humor was measured.

[2] = test system: N1E-115 cells; assay type: cell-based; details: mouse, 24 h
Procedure: Mouse neuroblastoma derived cell lines (N1E-115 cells) were seeded in a 96 well microplate at 10^4 per well and cultured overnight in Dulbecco's Modified Eagle's Minimum Essential Medium (100 μL, DMEM, GIBCO) containing 10% FBS at 37° C. under 5% CO2. The whole amount of the culture solution was removed, and the medium was changed to various concentrations of a test drug solution (100 μL, prepared by dissolving Compound 1 in 99.5% ethanol and adjusting final concentration of ethanol to 1% with DMEM) and the cells were cultured for 24 hr. The culture supernatant and cells were separately recovered. The cells were ultrasonicated to give soluble fractions and the lactic dehydrogenase (LDH) activity of each of them was determined with an LDH cytotoxicity detection kit (MK401, manufactured by Takara Bio Inc.), and an LDH release rate was determined by the following formula and taken as a proportion of the cells suffered from cytotoxicity. LDH release rate (%)={LDH activity of culture supernatant/(LDH activity of culture supernatant+intracellular LDH activity)}×100
LD50 was determined from the LDH release rate at each test drug concentration by LD50/ED50 probit method of SAS preclinical package (Ver. 6.12).

Cc1ccccc1NC(=S)N[C@@H](CC(C)C)C(=O)N[C@H]1CCOC1O (stereo partly drawn) [Compound 9, (2S)-4-methyl-2-((((2-methylphenyl)amino)thioxomethyl)amino)-N-((3S)-tetrahydro-2-hydroxy-3-furanyl)pentanamide]
melting point: 57.9 to 58.9 °C

CCC(C)[C@H](NC(=S)Nc1ccccc1)C(=O)N[C@H]1CCOC1O (stereo partly drawn) [Compound 2, (2S)-3-methyl-2-(((phenylamino)thioxomethyl)amino)-N-((3S)-tetrahydro-2-hydroxy-3-furanyl)pentanamide]
melting point: 51.3 to 52.9 °C

CC(C)C[C@H](NC(=S)Nc1ccccc1)C(=O)N[C@H]1CCOC1O (stereo partly drawn) [Compound 1, (2S)-4-methyl-2-(((phenylamino)thioxomethyl)amino)-N-((3S)-tetrahydro-2-hydroxy-3-furanyl)pentanamide]
AUC ([1]; Japanese white, aqueous humor, topical, 50 μL per eye, 0-3 hr after the instillation of the suspension of Formulation Example 4, read-out: area under drug concentration-time curve (AUC) of amount penetrated to aqueous humor): 4.79 µM·h | Cmax ([1]; Japanese white, aqueous humor, topical, 50 μL per eye, 50 μL instillation of the suspension of Formulation Example 4, read-out: concentration in the aqueous humor, maximum (Cmax)): 2.9 µM | time at which concentration in the aqueous humor reached the maximum ([1]; 50 μL instillation of the suspension of Formulation Example 4): 0.5 h | LDH release rate ([2]; 0.1 mM): 9.32 ± 0.07% | LDH release rate ([2]; 0.5 mM): 11.05 ± 0.72% | LDH release rate ([2]; 1 mM): 14.22 ± 1.14% | LDH release rate ([2]; 2 mM): 47.73 ± 1.66%

Cc1cccc(NC(=S)N[C@@H](CC(C)C)C(=O)N[C@H]2CCOC2O)c1 (stereo partly drawn) [Compound 10, (2S)-4-methyl-2-((((3-methylphenyl)amino)thioxomethyl)amino)-N-((3S)-tetrahydro-2-hydroxy-3-furanyl)pentanamide]
melting point: 61.4 to 61.9 °C
